{"source": "patent US20250179049A1", "about": "“SALTS OF HETEROCYCLIC INHIBITORS OF MONOCARBOXYLATE TRANSPORTER 4 FOR THE TREATMENT OF DISEASE” (Vettore, LLC, priority 2022, published 2025)", "key": {"[1]": {"experiment": "Dog pharmacokinetics, powder in capsule", "format": "in vivo, beagle dogs", "description": "Groups, Dosing, and Collection. The pharmacokinetics of the free acid and the tris salt of Compound 1 administered by oral capsules was assessed in dogs. Three male beagle dogs were administered a single dose of 3 mg/kg Compound 1 free acid on Day 1 of the study, and a single dose of 3 mg/kg Compound 1 tris salt on Day 8 of the study. Plasma was collected pre-dose, and at 0.5, 1, 2, 4, 8, 12 and 24 hours post-dose via puncture of peripheral veins.\n(§1) LC MS-MS Analysis. Liquid Chromatography with tandem mass spectrometry was used to determine plasma concentrations of Compound 1 Free Acid and Compound 1 Tris Salt in plasma samples collected at prescribed time points. Instrumentation included YMC-Triart C18, S-5 μm (50×2.1 mm) HPLC column, liquid chromatograph Shimadzu LC-30AD with communications bus module CBM-20A and Auto SIL-20AC HT; and a Triple Quad 5500 LC/MS/MS instrument. Tolbutamide was used as an internal standard."}, "[2]": {"experiment": "Dog pharmacokinetics, oral gavage suspension", "format": "in vivo, beagle dogs", "settings": "for MRT last / half-life: dog, plasma; for MRT last / half-life / ClF: male beagle dogs, oral suspension, mean", "description": "In a follow-up study, the pharmacokinetics of tris salt Compound 1 were investigated via oral gavage of a 0.5% methylcellulose in saline formulation. Two Groups of animals were tested. In Group 1, three male beagle dogs were administered a single dose of 3 mg/kg Compound 1 tris salt. In Group 2, three male beagle dogs were administered a single dose of 30 mg/kg Compound 1 tris salt. Plasma was collected pre-dose, and at 0.5, 1, 2, 4, 8, 12 and 24 hours post-dose via puncture of peripheral veins.\nas §1"}, "beagle dogs [3]": {"system": "beagle dogs", "experiment": "in vivo", "settings": "both, dog, 28 days", "description": "(§2) Compound 1 was administered to beagle dogs by oral gavage in a range finding study at doses of 30, 79, 240, or 790 mg/kg. […] Compound 1 was administered at doses of 10, 50, and 150 mg/kg/day in the pivotal repeat dose toxicity studies for 28 days.\n(§3) Compound 1 tris salt was evaluated for safety in 7- and 28-day studies in rats and dogs. […] The NOAELs for this rat study were 120 mg/kg/day for males and 75 mg/kg/day for females. […] The NOAEL determined in the 28-day dog GLP study was 150 mg/kg/day. These correspond to human equivalent doses (HEDs) of: • Rat: 75 mg/kg×0.16=12 mg/kg • Dog: 150 mg/kg×0.54=81 mg/kg"}, "[4]": {"experiment": "ADME: intravenous clearance and oral bioavailability", "format": "in vivo", "source_text": "The absorption, distribution, metabolism, and excretion properties of Compound 1 have been characterized in both in vitro and in vivo studies. Sensitive and selective bioanalytical methods have been developed and validated for rat and dog plasma. Following intravenous administration, the systemic clearance of Compound 1 in all species evaluated was considered low. Following oral administration, bioavailability was generally greater than 30% in the species evaluated. Initial studies utilized the Compound 1 free form. […] All Good Laboratory Practice (GLP) studies were performed using the Compound 1 tris salt form. Dose levels indicate Compound 1 free form equivalents unless otherwise noted."}, "Sprague Dawley rats [5]": {"system": "Sprague Dawley rats", "experiment": "Behavioral safety pharmacology study", "format": "in vivo", "settings": "oral dose of up to 400 mg/kg, male rats (highest dose tested)", "description": "(§4) The safety pharmacology of Compound 1 and its tris salt was evaluated in an in vitro human ether-à-go-go related gene (hERG) assay, a behavioral study in Sprague Dawley rats, and a respiratory and cardiovascular system assessment using electrocardiogram (ECG)-telemetered beagle dogs. […] Determination of the IC50 against the hERG channel was precluded due to potential cytotoxicity at doses >300 μM. […] Cardiovascular safety pharmacology assessments noted decreases in PR interval duration that were detected up to 9 hours post administration of Compound 1 and were usually dose related and associated with potential changes in heart rate. These changes were considered biologically insignificant due to their small magnitude (up to 10 msec compared to vehicle control), association with potential increases in heart rate, and the absence of correlated findings."}, "[6]": {"system": "primary human lung fibroblasts", "experiment": "Fibroblast-to-myofibroblast transition", "format": "cell-based", "source_text": "The reduction of lung fibrosis upon MCT4 inhibition is coupled with changes in serum metabolites that indicates turnover of extracellular matrix protein and increased fatty acid oxidation."}, "beagle dogs [7]": {"system": "beagle dogs", "experiment": "Respiratory and cardiovascular assessment in ECG-telemetered dogs", "format": "in vivo", "description": "as §4"}, "[8]": {"system": "bleomycin-induced lung fibrosis", "experiment": "Bleomycin-induced lung fibrosis model", "format": "in vivo, mice", "description": "The reduction of lung fibrosis upon MCT4 inhibition is coupled with changes in serum metabolites that indicates turnover of extracellular matrix protein and increased fatty acid oxidation. […] The effects of Compound 1, alone or in combination with approved IPF drugs pirfenidone or nintedanib, were studied in the bleomycin-induced lung fibrosis model in therapeutic mode. Compound 1 was dosed at 3 mg/kg, BID; pirfenidone was dosed at 100 mg/kg, BID; and nintedanib was dosed at 50 mg/kg, QD, all via oral gavage."}, "beagle dogs [9]": {"system": "beagle dogs", "experiment": "Range finding toxicity study in dogs", "format": "in vivo", "description": "as §2"}, "hERG channel": {"target": "hERG channel (Homo sapiens, UniProt Q12809)", "sequence (Q12809 whole entry)": "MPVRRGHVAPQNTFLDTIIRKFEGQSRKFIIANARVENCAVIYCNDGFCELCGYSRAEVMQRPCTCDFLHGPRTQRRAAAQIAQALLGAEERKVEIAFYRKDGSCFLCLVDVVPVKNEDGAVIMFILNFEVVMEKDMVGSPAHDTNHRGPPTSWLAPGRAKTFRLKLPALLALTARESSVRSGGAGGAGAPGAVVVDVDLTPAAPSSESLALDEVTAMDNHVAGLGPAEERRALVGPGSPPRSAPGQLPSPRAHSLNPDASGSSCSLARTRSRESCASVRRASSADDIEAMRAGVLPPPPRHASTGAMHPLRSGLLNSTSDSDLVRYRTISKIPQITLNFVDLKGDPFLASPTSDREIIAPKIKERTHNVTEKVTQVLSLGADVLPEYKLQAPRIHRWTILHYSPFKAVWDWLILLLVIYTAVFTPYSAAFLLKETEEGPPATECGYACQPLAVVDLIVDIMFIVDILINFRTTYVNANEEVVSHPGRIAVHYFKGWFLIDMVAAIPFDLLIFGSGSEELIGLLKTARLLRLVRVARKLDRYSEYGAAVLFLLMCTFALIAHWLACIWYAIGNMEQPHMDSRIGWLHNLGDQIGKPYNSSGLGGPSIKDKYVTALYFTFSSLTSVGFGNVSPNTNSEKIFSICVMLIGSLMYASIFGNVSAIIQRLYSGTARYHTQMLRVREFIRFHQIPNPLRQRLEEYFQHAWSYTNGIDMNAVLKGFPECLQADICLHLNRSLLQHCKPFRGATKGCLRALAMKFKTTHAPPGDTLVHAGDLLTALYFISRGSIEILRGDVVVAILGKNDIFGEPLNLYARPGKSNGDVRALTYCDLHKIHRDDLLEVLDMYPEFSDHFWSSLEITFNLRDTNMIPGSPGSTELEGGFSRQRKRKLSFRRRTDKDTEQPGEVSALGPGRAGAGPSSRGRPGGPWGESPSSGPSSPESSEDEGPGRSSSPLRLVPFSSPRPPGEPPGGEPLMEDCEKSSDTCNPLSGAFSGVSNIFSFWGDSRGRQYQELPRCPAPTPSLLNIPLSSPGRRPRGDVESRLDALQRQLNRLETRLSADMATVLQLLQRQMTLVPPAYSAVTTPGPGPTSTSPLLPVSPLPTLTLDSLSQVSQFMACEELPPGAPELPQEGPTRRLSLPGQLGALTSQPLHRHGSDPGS", "experiment": "in vitro hERG assay", "format": "cell-based", "settings": "determination precluded by potential cytotoxicity at >300 μM; read-out: half maximal inhibitory concentration (IC50) against the hERG channel", "description": "as §4"}, "Sprague Dawley rats [10]": {"system": "Sprague Dawley rats", "experiment": "28-day repeat-dose toxicity study in rats", "format": "in vivo", "settings": "male, rat, in vivo, 400 mg/kg/day, 28 days", "description": "Compound 1 was administered to Sprague Dawley rats by oral gavage at doses of 25, 75, and 250 mg/kg/day (females) and 40, 120, and 400 mg/kg/day (males) for 28 days. Compound 1-related mortality occurred in 8 of the 15 toxicity males administered 400 mg/kg/day beginning on Day 8 through 24. […] Target tissues included bone marrow, spleen, thymus, liver, lymph nodes, epididymides, seminal vesicles, prostate, testes, uterus, and ovaries.\nas §3"}, "[11]": {"settings": "male beagle dogs, powder in capsule, 3 mg/kg, mean"}, "[12]": {"settings": "male, beagle, dog, plasma, po, 3 mg/kg, male beagle dogs, powder in capsule, mean"}}, "note": "Counter-ions that a name gives are not always drawn.", "data": [{"compound": "CC(C)(OCc1cc(-c2cccc(OC3CCC3)c2)n(-c2ccccc2N2CCC2)n1)C(=O)O", "note": "[Compound 1 tris salt, tris salt of 2-((1-(2-(azetidin-1-yl)phenyl)-5-(3-cyclobutoxyphenyl)-1H-pyrazol-3-yl)methoxy)-2-methylpropanoic acid]", "values": [{"measurement": "Half-life compared to free acid", "setting": "[1]; dogs", "result": "lower"}, {"measurement": "Mean residence time compared to free acid", "setting": "[1]; dogs", "result": "increased"}, {"measurement": "Total drug exposure across time (AUClast and AUCInf) compared to free acid", "setting": "[1]; dogs, powder in capsule and suspension formulations", "result": "higher"}, {"measurement": "ClF", "setting": "[1]; [11]", "result": 756}, {"measurement": "MRTlast", "setting": "[1]; [11]", "result": 7.89, "unit": "h"}, {"measurement": "T1/2", "setting": "[1]; [11]", "result": 3.63, "unit": "h"}, {"measurement": "MRT last", "setting": "[2]; 3 mg/kg", "result": 2.34, "unit": "h"}, {"measurement": "half-life", "setting": "[2]; 3 mg/kg", "result": 284, "unit": "min"}, {"measurement": "MRT last", "setting": "[2]; 30 mg/kg", "result": 3.81, "unit": "h"}, {"measurement": "half-life", "setting": "[2]; 30 mg/kg", "result": 221, "unit": "min"}, {"measurement": "Clinical symptoms", "setting": "[2]; dogs, single 3 or 30 mg/kg oral gavage dose", "result": "No abnormal clinical symptoms were observed"}, {"measurement": "ClF", "setting": "[2]; 3 mg/kg", "result": 602}, {"measurement": "ClF", "setting": "[2]; 30 mg/kg", "result": 547}, {"measurement": "Adverse effects", "setting": "beagle dogs [3]", "result": "no Compound 1 tris salt-related adverse effects"}]}, {"compound": "CC(C)(OCc1cc(-c2cccc(OC3CCC3)c2)n(-c2ccccc2N2CCC2)n1)C(=O)O", "note": "[Compound 1, 2-((1-(2-(azetidin-1-yl)phenyl)-5-(3-cyclobutoxyphenyl)-1H-pyrazol-3-yl)methoxy)-2-methylpropanoic acid]", "values": [{"measurement": "Systemic clearance", "setting": "[4]; intravenous administration, all species evaluated", "result": "low"}, {"measurement": "bioavailability", "setting": "[4]; plasma, oral administration, species evaluated", "result": "> 30", "unit": "%"}, {"measurement": "Clinical symptoms", "setting": "[1]; dogs, single 3 mg/kg oral capsule dose", "result": "No abnormal clinical symptoms were observed"}, {"measurement": "ClF", "setting": "[1]; male beagle dogs, powder in capsule, 3 mg/kg, mean, listed as Free Acid", "result": 2505}, {"measurement": "MRT last", "setting": "[1]; [12]", "result": 5.39, "unit": "h"}, {"measurement": "half-life", "setting": "[1]; [12]", "result": 380, "unit": "min"}, {"measurement": "Behavioral effects", "setting": "Sprague Dawley rats [5]", "result": "no Compound 1-related behavioral effects"}, {"measurement": "Fibroblast-to-myofibroblast transition", "setting": "[6]", "result": "attenuates the fibroblast-to-myofibroblast transition"}, {"measurement": "Production of alpha-smooth muscle actin (αSMA)", "setting": "[6]", "result": "reducing the production"}, {"measurement": "Time post administration at which decreases in PR interval duration were detected", "setting": "beagle dogs [7]; dogs", "result": "up to 9 hours"}, {"measurement": "Decrease in PR interval duration, magnitude", "setting": "beagle dogs [7]; dogs, compared to vehicle control", "result": "up to 10 msec"}, {"measurement": "Respiratory effects", "setting": "beagle dogs [7]; oral dose of up to 150 mg/kg, dogs (highest dose tested)", "result": "no significant respiratory effects"}, {"measurement": "Lung fibrosis", "setting": "[8]; aged (>60 week) mice", "result": "reduced lung fibrosis"}, {"measurement": "Lung lactate levels", "setting": "[8]; aged (>60 week) mice", "result": "reduction in lung lactate levels"}, {"measurement": "Lung fibrosis", "setting": "[8]; bleomycin-induced mouse model of IPF", "result": "reduces lung fibrosis"}, {"measurement": "Minimal efficacious dose", "setting": "[8]; twice daily (BID), bleomycin-induced mouse model of IPF", "result": 3, "unit": "mg/kg"}, {"measurement": "Dose at which decreased thymus weights were observed", "setting": "beagle dogs [9]; dogs", "result": "≥ 240", "unit": "mg/kg"}, {"measurement": "Clinical observations", "setting": "beagle dogs [9]; dogs, oral gavage 30, 79, 240, or 790 mg/kg, all dose levels", "result": "Watery feces and emesis were occasionally observed"}, {"measurement": "Electrolyte changes", "setting": "beagle dogs [9]; male dogs, 790 mg/kg", "result": "increased potassium and decreased sodium and chloride"}, {"measurement": "IC50", "setting": "hERG channel", "result": "> 300", "unit": "µM"}, {"measurement": "Compound-related mortality", "setting": "Sprague Dawley rats [10]", "result": "8 of the 15"}]}]}
